Drawing on the supplement of paper PMC10307832, this text covers relative viability for one cell line.

Common to all, as to test: relative viability (nuclei count vs DMSO), 5 days (fraction); higher = more cells survive
Compound in assay [1]: COc1cc(Nc2ncc(F)c(Nc3ccc4c(n3)NC(=O)C(C)(C)O4)n2)cc(OC)c1OC [R406] + Cc1nc(Nc2ncc(C(=O)Nc3c(C)cccc3Cl)s2)cc(N2CCN(CCO)CC2)n1 [Dasatinib] (partner 0.075 µM)
Summed up: (§1)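 Values are medians from duplicate plates. Each reflects relative viability, defined as the nuclei count of treated wells over that of vehicle wells. Lung cancer cell lines in 1536-well plates were pin-tool dosed one day after seeding with one drug alone or with a fixed anchor-drug dose plus five library-drug doses (not always all listed) in √10 steps, then fixed, stained and imaged at 4× after 5 days.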

Compound in assay [2]: COc1cc(Nc2ncc(F)c(Nc3ccc4c(n3)NC(=O)C(C)(C)O4)n2)cc(OC)c1OC [R406] + C[C@@H](Oc1cc(-c2cnn(C3CCNCC3)c2)cnc1N)c1c(Cl)ccc(F)c1Cl [Crizotinib] (partner 1 µM)
Summed up: as §1

Compound in assay [3]: COc1cc(Nc2ncc(F)c(Nc3ccc4c(n3)NC(=O)C(C)(C)O4)n2)cc(OC)c1OC [R406] + Cc1cc(Nc2cc(N3CCN(C)CC3)nc(Sc3ccc(NC(=O)C4CC4)cc3)n2)n[nH]1 [Tozasertib] (partner 0.1 µM)
The method in brief: as §1

Compound in assay [4]: COc1cc(Nc2ncc(F)c(Nc3ccc4c(n3)NC(=O)C(C)(C)O4)n2)cc(OC)c1OC [R406] + Cc1nc(NC(=O)N2CCC[C@H]2C(N)=O)sc1-c1ccnc(C(C)(C)C(F)(F)F)c1 [Alpelisib] (partner 2 µM)
The method in brief: as §1

In the case of UMC-11, the relative viability was found to be 0.466 in assay [1] (first compound 0.08 µM); 0.572 in assay [1] (first compound 0.253 µM); 0.519 in assay [1] (first compound 0.8 µM); 0.459 in assay [1] (first compound 2.53 µM); 0.342 in assay [1] (first compound 8 µM); 0.628 in assay [2] (first compound 0.08 µM). The relative viability in assay [2] (first compound 0.253 µM) is 0.88; in assay [2] (first compound 0.8 µM) it was 0.663; in assay [2] (first compound 2.53 µM), 0.392; in assay [2] (first compound 8 µM), 0.119; in assay [3] (first compound 0.08 µM) it was 0.203; in assay [3] (first compound 0.253 µM) it was 0.207. For the same cell line, the relative viability in assay [3] (first compound 0.8 µM) came out at 0.205; in assay [3] (first compound 2.53 µM) it was 0.25; in assay [3] (first compound 8 µM), 0.185; in assay [4] (first compound 0.08 µM), 0.969; in assay [4] (first compound 0.253 µM), 1.06; in assay [4] (first compound 0.8 µM), 1.15. For the same cell line, the relative viability was 0.89 in assay [4] (first compound 2.53 µM) and 0.386 in assay [4] (first compound 8 µM).
